Measurements as given in ChEMBL document CHEMBL1152258, “Imidazo[5,1-f][1,2,4]triazin-2-amines as novel inhibitors of polo-like kinase 1” (Bioorg Med Chem Lett, 2008).
Each block holds one compound with its values, some of them ahead of it.

How the values were obtained:
[1] = target: Serine/threonine-protein kinase PLK1 (Homo sapiens, UniProt P53350); assay: Inhibition of PLK1 expressed in baculovirus infected Trichoplusia ni cells
RKO = assay: Antiproliferative activity against human RKO cells after 72 hrs; format: functional, cell-based
HCT-116 = assay: Antiproliferative activity against human HCT116 cells after 72 hrs; format: functional, cell-based; settings: HCT-116, 72 h
NCI-H460 = assay: Antiproliferative activity against human H460 cells after 72 hrs; format: functional, cell-based; settings: NCI-H460, 72 h
PC-3 = assay: Antiproliferative activity against human PC3 cells after 72 hrs; format: functional, cell-based; settings: PC-3, 72 h
MCF7 = assay: Antiproliferative activity against human MCF7 cells after 72 hrs; format: functional, cell-based; settings: MCF7, 72 h
[2] = Clearance in mouse at 5 mg/kg, iv; format: ADME, organism-based; design: dose 5 mg/kg, route intravenous; settings: in vivo
[3] = Oral bioavailability in mouse; format: ADME, organism-based; settings: in vivo
[4] = Volume of distribution at steady state in mouse at 5 mg/kg, iv; format: ADME, organism-based; design: dose 5 mg/kg, route intravenous; settings: in vivo, read-out: Vdss
[5] = target: Serine/threonine-protein kinase PLK3 (Homo sapiens, UniProt Q9H4B4); assay: Inhibition of PLK3 expressed in baculovirus infected Trichoplusia ni cells
Chain of Serine/threonine-protein kinase PLK3 (Q9H4B4 whole entry): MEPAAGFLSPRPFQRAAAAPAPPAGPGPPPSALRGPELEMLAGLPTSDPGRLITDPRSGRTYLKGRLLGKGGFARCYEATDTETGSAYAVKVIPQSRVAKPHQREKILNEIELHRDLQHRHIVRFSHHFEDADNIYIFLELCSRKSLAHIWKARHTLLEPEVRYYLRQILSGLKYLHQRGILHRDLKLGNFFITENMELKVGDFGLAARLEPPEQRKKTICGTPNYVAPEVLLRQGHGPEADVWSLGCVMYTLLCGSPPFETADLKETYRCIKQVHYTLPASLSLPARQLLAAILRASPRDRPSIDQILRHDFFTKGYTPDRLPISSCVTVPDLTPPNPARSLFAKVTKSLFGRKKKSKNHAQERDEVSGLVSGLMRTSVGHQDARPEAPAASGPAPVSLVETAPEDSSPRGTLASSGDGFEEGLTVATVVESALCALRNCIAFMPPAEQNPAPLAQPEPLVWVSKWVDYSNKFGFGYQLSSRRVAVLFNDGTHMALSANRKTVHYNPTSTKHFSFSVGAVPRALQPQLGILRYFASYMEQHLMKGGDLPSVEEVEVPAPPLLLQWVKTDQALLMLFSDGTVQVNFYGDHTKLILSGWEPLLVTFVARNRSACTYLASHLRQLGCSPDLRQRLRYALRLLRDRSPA

[6] = AUC in po dosed mouse; format: ADME, organism-based; settings: plasma
[7] = Volume of distribution at steady state in mouse at 2.9 mg/kg, iv; format: ADME, organism-based; design: dose 2.9 mg/kg, route intravenous; settings: in vivo, read-out: Vdss
[8] = Clearance in mouse at 2.9 mg/kg, iv; format: ADME, organism-based; design: dose 2.9 mg/kg, route intravenous; settings: in vivo

Chain of Serine/threonine-protein kinase PLK1 (P53350 whole entry): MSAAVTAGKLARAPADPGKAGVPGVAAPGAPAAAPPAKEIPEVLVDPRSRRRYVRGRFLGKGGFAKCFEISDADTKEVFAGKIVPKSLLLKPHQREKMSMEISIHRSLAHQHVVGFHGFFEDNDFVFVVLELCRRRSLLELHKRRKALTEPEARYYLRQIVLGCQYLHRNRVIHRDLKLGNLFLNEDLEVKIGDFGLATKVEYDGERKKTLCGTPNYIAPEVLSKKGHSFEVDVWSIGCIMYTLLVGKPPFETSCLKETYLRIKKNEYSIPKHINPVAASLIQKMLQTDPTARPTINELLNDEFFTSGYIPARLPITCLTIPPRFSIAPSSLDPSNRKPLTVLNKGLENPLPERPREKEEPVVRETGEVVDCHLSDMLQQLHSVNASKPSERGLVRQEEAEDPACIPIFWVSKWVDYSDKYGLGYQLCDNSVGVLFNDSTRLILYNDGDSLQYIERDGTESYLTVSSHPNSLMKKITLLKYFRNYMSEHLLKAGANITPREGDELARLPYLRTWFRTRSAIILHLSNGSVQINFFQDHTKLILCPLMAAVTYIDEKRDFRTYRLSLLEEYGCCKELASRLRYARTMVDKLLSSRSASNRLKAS

IC50 [1]: 0.08 µM
Structure (SMILES): COc1cc(Nc2ncc3c(C)nc(-c4ccc(F)cc4)n3n2)cc(OC)c1OC

IC50 [1]: > 10 µM
Structure (SMILES): Cc1nc(-c2ccccc2)n2nc(Nc3cccc(C(F)(F)F)c3)ncc12

IC50 [1]: 2.74 µM
Structure (SMILES): Cc1nc(-c2ccccc2)n2nc(Nc3ccc(S(N)(=O)=O)cc3)ncc12

IC50 [1]: 5.66 µM
Structure (SMILES): COc1ccccc1-c1nc(C)c2cnc(Nc3cc(OC)c(OC)c(OC)c3)nn12

IC50 [1]: 1.2 µM
Structure (SMILES): Cc1nc(-c2ccccc2)n2nc(Nc3ccccc3)ncc12

IC50 [1]: > 10 µM
Structure (SMILES): Cc1nc(-c2ccccc2)n2nc(N)ncc12

IC50 [1]: 1.5 µM
Structure (SMILES): Cc1nc(-c2ccccc2)n2nc(NCc3ccccc3)ncc12

IC50 [1]: 0.68 µM
Structure (SMILES): COc1ccc(Nc2ncc3c(C)nc(-c4ccccc4)n3n2)cc1

IC50 (HCT-116): 7.8 µM
IC50 [1]: 0.07 µM
IC50 (NCI-H460): 5.8 µM
IC50 (PC-3): 26 µM
IC50 (MCF7): 11 µM
Structure (SMILES): COc1cc(Nc2ncc3c(C)nc(-c4cccc(Br)c4)n3n2)cc(OC)c1OC
IC50 (RKO): 7.6 µM

IC50 (HCT-116): 3.9 µM
bioavailability [3]: 18%
IC50 (NCI-H460): 5.4 µM
IC50 (PC-3): 7.8 µM
IC50 (MCF7): 4.8 µM
AUC [6]: 264 ng·h/mL
Vd [7]: 2.3 L/kg
clearance [8]: 81 mL/min/kg
Structure (SMILES): COc1cc(Nc2ncc3c(C)nc(-c4cccc(C(F)(F)F)c4)n3n2)cc(OC)c1OC [GW837331X]
IC50 (RKO): 3.2 µM

The remaining lines, values behind:

Structure (SMILES): Cc1nc(-c2ccccc2)n2nc(NCCc3ccncc3)ncc12
IC50 [1]: > 10 µM

Structure (SMILES): COc1cc(Nc2ncc3c(C)nc(-c4ccc(C(F)(F)F)cc4)n3n2)cc(OC)c1OC
IC50 [1]: 1.06 µM

Structure (SMILES): Cc1nc(-c2ccccc2)n2nc(Nc3ccc([N+](=O)[O-])cc3)ncc12
IC50 [1]: 2.81 µM

Structure (SMILES): COc1cc(Nc2ncc3c(C)nc(-c4ccccc4[N+](=O)[O-])n3n2)cc(OC)c1OC
IC50 [1]: 1.98 µM

Structure (SMILES): Cc1nc(-c2ccccc2)n2nc(NC3CCCCC3)ncc12
IC50 [1]: > 10 µM

Structure (SMILES): COc1cccc(Nc2ncc3c(C)nc(-c4ccccc4)n3n2)c1
IC50 [1]: 0.3 µM

Structure (SMILES): COc1cc(Nc2ncc3c(C)nc(-c4ccccc4Br)n3n2)cc(OC)c1OC
IC50 [1]: 2.67 µM

Structure (SMILES): COc1cc(Nc2ncc3c(C)nc(-c4ccccc4)n3n2)cc(OC)c1OC
clearance [2]: 53 mL/min/kg
IC50 (RKO): 3.7 µM
IC50 (HCT-116): 5.3 µM
bioavailability [3]: 10%
Vd [4]: 1.6 L/kg
IC50 [5]: 0.09 µM
IC50 (NCI-H460): 6.5 µM
IC50 (PC-3): 12 µM
IC50 (MCF7): 5.2 µM
AUC [6]: 301 ng·h/mL

Structure (SMILES): Cc1nc(-c2ccccc2)n2nc(Nc3ccc(OCCN(C)C)cc3)ncc12
IC50 [1]: 0.38 µM

Structure (SMILES): COc1ccc(Nc2ncc3c(C)nc(-c4ccccc4)n3n2)cc1OC
IC50 [1]: 0.09 µM

Structure (SMILES): Cc1nc(-c2ccccc2)n2nc(NCCCN3CCOCC3)ncc12 [GW874091X]
IC50 [1]: > 10 µM
